What was measured:
Type in all cases: cell-based
[1] = system: SDF-1α induced Ca flux in SUP-T1 cells; assay: Inhibition of chemokine (SDF-1α) induced Ca flux measured on a FLIPR; details: Homo sapiens, at 20 μg/mL
Protocol: Inhibition of Chemokine Induced Ca Flux Measured on a FLIPR (Molecular Devices) Loading dye: Fluo-3, AM (Molecular Probes F-1241) is dissolved in anhydrous DMSO and stored frozen in aliquots. To increase the solubility of the dye in the loading medium, 10% (w/v) pluronic acid (Molecular Probes F-127) is added to the Fluo-3 stock solution immediately before use. buffer+0.2% BSA, pH 7.4. HBSS 10× [(w/o phenol red and sodium bicarbonate (Gibco 14 065-049)]; Hepes buffer 1M (Gibco 15 630-056), BSA (Sigma A3675). The flux buffer is vacuum-filtered and stored refrigerated for a maximum of 5 days. Before use in the experiment, the buffer is warmed at 37° C. in a waterbath. The test compounds were diluted in flux buffer at the desired concentration and added to 4 wells of a black microplate (4 parallel measurements per compound). The following control wells were used: 100% response control (no inhibition), flux buffer was added; 100% inhibition control: chemokine was added at 5-times the concentration required to induce a Ca flux. The chemokines are diluted in flux buffer to concentrations that are 4-fold higher than the desired concentrations required for stimulation of the cells (i.e. 2.5 nM for SDF-1α and 0.6 nM for RANTES). The chemokines were added to untreated 96-well Sero well compound plates (International Medical, Sterilin code 611F96). In the negative control well's (baseline monitoring), flux buffer is added instead of chemokine. As a positive control to check for dye loading efficiency, 20 μM digitonin (final concentration) was also included. The agonist plate was incubated in the FLIPR (37° C.) for 15-30 min. Cell Loading Protocol for Measuring Inhibition of SDF-1α Induced Ca Flux in SUP-T1 Cells. SUP-T1 cells were centrifuged at room temperature (RT) and re-suspended in loading medium (RPMI-1640 containing 2% FBS and 4 μM Fluo-3, AM). The cells were incubate at room temperature for 45 min. then washed twice in flux buffer then incubated in flux buffer at room temperature for 10 min. The cells were centrifuged and re-suspended in flux buffer at a density of 3×10^6 cells per mL. A 100 μL aliquot of the cell suspension (3×10^5 cells) was added to each well of a black microplate (Costar 3603), which already contains 50 μL of a solution of the test compound (at concentrations that are 3-fold higher than the desired final compound concentrations). The microplate is then gently centrifuged at room temperature. Homogeneous spreading of the cells on the bottom of the microplate wells was then confirmed with a microscope and the microplate was incubated in the FLIPR (37° C.) for 10 min. prior to testing. The FLIPR settings (camera exposure time and laser power) are adjusted to obtain initial fluorescence values between 8,000 and 10,000 units. After monitoring a 20 second-baseline, the agonist (chemokine) (50 μL) is added by automatic pipettor with black pipette tips. Fluorescence is measured simultaneously in all wells of the microplate every 2 seconds (first 2 min) and thereafter every 6 seconds (additional 2 min). The average ca-flux measured in each set of 4 identical wells (one test compound) was calculated by the FLIPR software. The compounds of the current invention are tested for inhibition of SDF-1α induced Ca flux in SUP-T1 cells using the method described above.

HIV-1 BaL (CCR5 using) = assay: Inhibition of HIV-1 (BaL) replication in PBMC's; details: Human immunodeficiency virus 1, BAL, PHA-stimulated PBMC's, viral p24 antigen expression
Protocol: Assay for Inhibition of HIV-1 (BaL) Replication in PBMC's. When compounds of the current invention are tested for inhibition of HIV-1 BaL (CCR5 using) replication in PHA-stimulated PBMC's (peripheral blood mononuclear cells) using viral p24 antigen expression (De […] et al. Antimicrob. Agents Chemother. 1994, 38, 668-674; Schols et al. J. Exp. Med., 1997, 186, 1383-1388), all show inhibition.

[2] = system: HIV-1 NL4.3 (or IIIB, CXCR4 using); assay: Inhibition of HIV-1 (NL4.3) replication in MT-4 cells; details: Human immunodeficiency virus 1, IIIB, MT4, 120 h, MTT viability after 5 days
Protocol: Assay for Inhibition of HIV-1 (NL4.3) Replication in MT-4 Cells. Inhibition of HIV-1 NL4.3 (or IIIB, CXCR4 using) replication assays were performed as previously described (Bridger et al. J. Med. Chem. 1999, 42, 3971-3981; De […] et al. Proc. Natl. Acad. Sci, 1992, 89, 5286-5290; De […] et al. Antimicrob. Agents Chemother. 1994, 38, 668-674; Bridger et al. J. Med. Chem. 1995, 38, 366-378; Schols et al. J. Exp. Med., 1997, 186, 1383-1388). Anti-HIV activity and cytotoxicity measurements were carried out in parallel. They were based on the viability of MT-4 cells that had been infected with HIV in the presence of various concentrations of the test compounds. After the MT-4 cells were allowed to proliferate for 5 days, the number of viable cells was quantified by a tetrazolium-based colorimetric 3-(4,5-dimethylthiazol-2-yl)-2,5-diphenyltetrazolium bromide (MTT) procedure in 96-well microtrays. In all of these assays, viral input (viral multiplicity of infection, MOI) was 0.01, or 100 times the 50% cell culture infective dose (CCID50). The EC50 was defined as the concentration required to protect 50% of the virus-infected cells against viral cytopathicity. When compounds of the current invention are tested for inhibition of HIV-1 NL4.3 or IIIB replication in MT-4 cells, all show inhibition.

SMILES | inhibition at 20 µg/mL [1] [%] | EC50 (HIV-1 BaL (CCR5 using)) [µg/mL] | EC50 [2] [µg/mL]
O=C(Nc1ccccn1)c1ccc(CN(Cc2nc3ccccc3[nH]2)C2CCCc3cccnc32)cc1 (centres unmarked) [Example 2, 4-{[(1 H-Benzimidazol-2-ylmethyl)-(5,6,7,8-tetrahydroquinolin-8-yl)amino]-methyl}-N-pyridin-2-yl-benzamide] | > 20 | < 20 | < 20
O=C(NCc1ccccn1)c1ccc(CN(Cc2nc3ccccc3[nH]2)C2CCCc3cccnc32)cc1 (centres unmarked) [Example 4, 4-{[(1 H-Benzimidazol-2-ylmethyl)-(5,6,7,8-tetrahydro-quinolin-8-yl)-amino]-methyl}-N-pyridin-2-ylmethyl-benzamide] | > 20 | < 20 | < 20
O=S(=O)(NCc1ccccn1)c1ccc(CN(Cc2nc3ccccc3[nH]2)C2CCCc3cccnc32)cc1 (centres unmarked) [Example 11, 4-{[(1 H-Benzimidazol-2-ylmethyl)-(5,6,7,8-tetrahydro-quinolin-8-yl)-amino]-methyl}-N-pyridin-2-ylmethyl-benzenesulfonamide] | > 20 | < 20 | < 20
O=C(NCc1ccc(CNC2CCCc3cccnc32)cc1)c1ccccn1 (centres unmarked) [Example 16, Pyridine-2-carboxylic acid 4-[(5,6,7,8-tetrahydro-quinolin-8-ylamino)-methyl]-benzeylamide] | – | < 20 | –
O=C(NCc1ccc(CN(Cc2nc3ccccc3[nH]2)C2CCCc3cccnc32)cc1)c1ccccn1 (centres unmarked) [Example 17, Pyridine-2-carboxylic Acid 4-{[(1 H-benzimidazol-2-ylmethyl)-(5,6,7,8-tetrahydro-quinolin-8-yl)-amino]-methyl}-benzylamide] | > 20 | < 20 | < 20
O=C(Nc1ccc(CN(Cc2nc3ccccc3[nH]2)C2CCCc3cccnc32)cc1)c1ccccn1 (centres unmarked) [Example 45, pyridine-2-carboxylic acid (4-{[(1 H-benzoimidazol-2-ylmethyl)-(5,6,7,8-tetrahydro-quinolin-8-yl)-amino]-methyl}-phenyl)-amide] | > 20 | – | < 20
O=S(=O)(NCc1ccc(CN(Cc2nc3ccccc3[nH]2)C2CCCc3cccnc32)cc1)c1ccccn1 (centres unmarked) [Example 48, Pyridine-2-sulfonic Acid 4-{[(1 H-benzoimidazol-2-ylmethyl)-(5,6,7,8-tetrahydro-quinolin-8-yl)-amino]-methyl}-benzylamide] | > 20 | < 20 | < 20
O=S(=O)(Nc1ccc(CN(Cc2nc3ccccc3[nH]2)C2CCCc3cccnc32)cc1)c1ccccn1 (centres unmarked) [Example 53, Pyridine-2-sulfonic acid (4-{[(1H-benzoimidazol-2-ylmethyl)-(5,6,7,8-tetrahydro-quinolin-8-yl)-amino]-methyl}-phenyl)-amide] | – | < 20 | < 20

From patent publication US6835731B2, “Chemokine receptor binding heterocyclic compounds” (AnorMED, Inc., priority 2000, dated 2004)
